Data reported in PMC9667784, “Synthesis, biological evaluation and computational studies of pyrazole derivatives as Mycobacterium tuberculosis CYP121A1 inhibitors” (RSC Medicinal Chemistry, 2022).

Target: BTFA-labelled CYP121_S171C (Mycobacterium tuberculosis, UniProt P9WPP7, S171C)
Assay type: binding

## COc1ccc(-c2nn(-c3ccc(Cl)cc3)cc2Cn2cncn2)cc1 [12b, 1-((1-(4-Chlorophenyl)-3-(4-methoxyphenyl)-1H-pyrazol-4-yl)methyl)-1H-1,2,4-triazole]
  19F NMR perturbations of the FG-loop compared with cYY: more intense than that of cYY

## CCOc1ccc(-c2nn(-c3ccc(Cl)cc3)cc2Cn2cncn2)cc1 [12d, 1-((1-(4-Chlorophenyl)-3-(4-ethoxyphenyl)-1H-pyrazol-4-yl)methyl)-1H-1,2,4-triazole]
  19F NMR perturbations of the FG-loop compared with cYY: more intense than that of cYY
